Results reported in patent US20260286302A1, “METHODS FOR PRODUCING A SUPER CENTRAL MEMORY CD8 T CELL SUBTYPE BY POLY(ADP-RIBOSE) POLYMERASE (PARP) INHIBITION AND USES THEREOF” (Georgetown University, priority 2023, published 2026).

How the values were obtained:
pMel-1 CD8 T cells = format: cell-based; conditions: gp100-activated; for percentage of CD44hiCD62Lhi TCM CD8 T cell population: 48 h of treatment, for PARPi concentration-dependent
Protocol: For ACT experiments, CD8+ T cells from pMel-1 mice were activated with gp100 peptide with and without PARPi for 48 h. Based on their CD44 and CD62L expression, cells were sorted by FACS and transferred into 9-day-old B16F10 melanoma-bearing mice tumor-bearing mice (1×10^6 cells per mouse). Tumor growth and survival of mice were monitored.
A total of 0.1-0.2×10^6 cells per sample were stained for Live/Dead staining followed by fixation and permeabilization. […] CD8^+ T cells from tumor samples were stained similarly. Data acquisition was performed on a BD LSR II flow cytometer using the software FACS Diva v.9.0. Results were analyzed using FlowJo software (TreeStar). […]

human CD8 T cells = test: In vitro-activated human CD8+ T cells, memory characteristics; format: cell-based; conditions: anti-CD3/CD28 coupled beads for 72 h
Protocol: For evaluation of memory characteristics in human CD8+ T cells, naive CD8+ T cells were activated in the presence or absence of PARPi, by Dynabeads™ Human T-Activator CD3/CD28 (Thermo Fisher #11131), […]. Post-activation cells were gated upon CD8^+ T cell population and various characteristics were investigated as described in the Examples below.
A total of 0.1-0.2×10^6 cells per sample were stained for Live/Dead staining followed by fixation and permeabilization. For IFNγ and granzyme B (Gzm B) staining, BD Cytofix/Cytoperm (catalog no. 51-2090KZ) and BD Perm/Wash (catalog no. 51-2091KZ) buffer set were used according to the manufacturer's instructions (BD Pharmingen). CD8^+ T cells from tumor samples were stained similarly. Data acquisition was performed on a BD LSR II flow cytometer using the software FACS Diva v.9.0. Results were analyzed using FlowJo software (TreeStar). MitoFM, a green-fluorescent mitochondrial stain, which localizes to mitochondria, was used as described previously (Sukumar et al., Cell Metab 23 (1): 63-76, 2016).
To this end, human naïve CD8 T cells were activated with anti-CD3/CD28 coupled beads for 72 h.

| SMILES | expression of IFNγ and Gzm B in CD44hiCD62Lhi CD8 T cells (pMel-1 CD8 T cells; 48 h) | percentage of CD44hiCD62Lhi TCM CD8 T cell population (pMel-1 CD8 T cells) | IFNγ expression (human CD8 T cells) | number of CD45ROhiCCR7hi cells (human CD8 T cells) | number of CD45ROhiCD62Lhi cells (human CD8 T cells) |
| --- | --- | --- | --- | --- | --- |
| Cn1ncnc1[C@H]1c2n[nH]c(=O)c3cc(F)cc(c23)N[C@@H]1c1ccc(F)cc1 [Talazoparib] | significantly increased | significantly increased | significant increase | significant increase | significant increase |
| NC(=O)c1cccc2cn(-c3ccc([C@@H]4CCCNC4)cc3)nc12 [Niraparib] |  | significantly increased |  |  |  |
